From PMC4564001 (Bioorganic & medicinal chemistry letters, 2015)

Experiments:
[1] = format: in vitro ADME, human; conditions: 1 μM, 37°C, LC-MS/MS
neutrophil influx = assay: Ozone rat model of pulmonary inflammation; format: in vivo, Sprague-Dawley rats
[2] = format: in vitro ADME; conditions: data not shown
Aqueous solubility = format: physicochemical; conditions: qualitative statement
[3] = format: in vivo; conditions: DPS vehicle

Row | SMILES | Human Plasma stability (% remaining) 1 hr [1] [% remaining] | Human Plasma stability (% remaining) 4 hr [1] [% remaining] | Human Plasma stability (% remaining) 24 hr [1] [% remaining] | Effectiveness at reducing neutrophil influx relative to 6 (neutrophil influx; single IV dose 1 mg/kg, ozone model, side-by-side with 6) | Stability in rat plasma (6 vs 7) [2] | Aqueous solubility (Aqueous solubility) | Rat PK AUC @ 1 mg/kg IV [3] [µM·h] | Reduction of neutrophil influx (BALF) (neutrophil influx; single IV dose 1 mg/kg at t = 0, 1 ppm ozone 4 hours, BALF at 24 hours)
1 | O=C(Nc1ccc(F)cc1)c1cnc(N(Cc2ccccc2)Cc2ccc(B(O)O)cn2)nc1 [Compound 7, (2-{(Benzyl)[(5-boronic acid-2-pyridyl)methyl]amino}-5-pyrimidinyl)(4-fluorophenylamino)formaldehyde] | 90 | 71 | 62 | twice as effective | no significant difference | – | – | –
2 | CN(Cc1ccc(B(O)O)cn1)c1ncc(C(=O)Nc2ccc(F)cc2)cn1 [Compound 23] | – | – | – | – | – | improved aqueous solubility | – | –
3 | CN(Cc1ccc(B(O)O)cn1)c1ccc(C(=O)Nc2ccc(F)cc2)cn1 [Compound 22] | – | – | – | – | – | improved aqueous solubility | – | –
4 | O=C(Nc1ccc(F)cc1)c1ccc(SCc2cc(OC(F)(F)F)ccc2B(O)O)nc1 [Compound 6, 6-(2-boronic acid-5-trifluoromethoxy-benzylsulfanyl)-N-(4-fluoro-phenyl)-nicotinamide] | 62 | 34 | 2 | – | no significant difference | – | 5.40 | modest reduction in neutrophil influx
